Laboratory results reported in patent US20230212122A1, “MITOCHONDRIAL TARGETING COMPOUNDS FOR THE TREATMENT OF ASSOCIATED DISEASES” (The Regents of the University of Michigan, priority 2020, published 2023).

Columns and labels:
BxPc3 cells = assay: MTT assay, cancer cell growth inhibition (BxPC-3); assay type: cell-based; settings: Homo sapiens, BXPC-3, 168 h, 7 days of treatment
Method: Measurement of cancer cell growth inhibition of the compounds of invention Cytotoxicity of the compounds was assessed by MTT assay. In brief, MIA PaCa-2 cells or BxPc3 cells were seeded in 96-well microtitre plates at density of 200 cells/well. After overnight attachment, cells were treated with compounds at indicated concentration. After 7 days of treatment, MTT solution (3 mg/ml, 20 μl) was added to each well and cells were incubated for 3 h at 37° C. After incubation, media from each well was removed and the dark blue formazan crystals formed by live cells were dissolved in DMSO ([…] per well). The absorbance intensity was measured at 570 nm on a microplate reader (Molecular Devices, Sunnyvale, Calif., USA). The half maximal inhibitory concentration (IC50) value were calculated using 4 or 6 dots curve plotted with Cumulative Gaussian equation or Log(inhibitor) vs. response equation in GraphPad Prism.

UM16 cell line = assay: Proteomics, protein fold change; assay type: cell-based; settings: for Fold change: 5 μM
Source text: Several proteins participating in energy metabolism were dramatically changed.

CCOC(=O)[C@@H]1CCCN(S(=O)(=O)c2ccc(S(=O)(=O)N(CC)CC)cc2)C1 [DX2-201, ethyl (R)-1-((4-(N,N-diethylsulfamoyl)phenyl)sulfonyl)piperidine-3-carboxylate]
IC50 (BxPc3 cells): 630 ± 240 nM
Serine protease 23, nuclear receptor family 2 group F member 6, protein NDRG1 (proteomic results) (UM16 cell line): upregulated
Glycerol kinase fold change (UM16 cell line; 24 hours, top upregulated): 3 fold
dihydrolilpoyl dehudrogenase fold change (UM16 cell line; downregulated, TCA cycle enzyme): 0.684
Fold change (UM16 cell line; protein ABTB2, 24 hours): 0.778
Fold change (UM16 cell line; protein ALAS1, 24 hours): 1.393
Fold change (UM16 cell line; protein ANKH, 24 hours): 0.777
Fold change (UM16 cell line; protein ANKRD54, 24 hours): 0.799
Fold change (UM16 cell line; protein AP1S2, 24 hours): 0.792
Fold change (UM16 cell line; protein AP2S1, 24 hours): 0.781
Fold change (UM16 cell line; protein APBB1IP, 24 hours): 1.458
Fold change (UM16 cell line; protein BTBD10, 24 hours): 1.651
Fold change (UM16 cell line; protein CCDC88C, 24 hours): 0.785
Fold change (UM16 cell line; protein CCNT2, 24 hours): 1.65
Fold change (UM16 cell line; protein CDC42BPA, 24 hours): 1.514
Fold change (UM16 cell line; protein CDCA5, 24 hours): 0.761
Fold change (UM16 cell line; protein CMTM4, 24 hours): 1.678
Fold change (UM16 cell line; protein CYP51A1, 24 hours): 1.636
Fold change (UM16 cell line; protein DHTKD1, 24 hours): 1.384
Fold change (UM16 cell line; protein DLD, 24 hours): 0.684
Fold change (UM16 cell line; protein DOLPP1, 24 hours): 0.731
Fold change (UM16 cell line; protein DOPEY2, 24 hours): 0.797
Fold change (UM16 cell line; protein DTNBP1, 24 hours): 0.794
Fold change (UM16 cell line; protein FAH, 24 hours): 0.785
Fold change (UM16 cell line; protein FAU, 24 hours): 0.742
Fold change (UM16 cell line; protein Hist1h1d, 24 hours): 0.703
Fold change (UM16 cell line; protein KIAA0355, 24 hours): 1.48
Fold change (UM16 cell line; protein MED27, 24 hours): 0.79
Fold change (UM16 cell line; protein MROH1, 24 hours): 1.386
Fold change (UM16 cell line; protein NAA35, 24 hours): 1.377
Fold change (UM16 cell line; protein NDRG1, 24 hours): 1.55
Fold change (UM16 cell line; protein NOL8, 24 hours): 0.771
Fold change (UM16 cell line; protein NR2F6, 24 hours): 1.842
Fold change (UM16 cell line; protein NRGN, 24 hours): 0.795
Fold change (UM16 cell line; protein OGFOD2, 24 hours): 0.754
Fold change (UM16 cell line; protein OSTC, 24 hours): 1.418
Fold change (UM16 cell line; protein PDCL, 24 hours): 0.752
Fold change (UM16 cell line; protein PLP2, 24 hours): 0.763
Fold change (UM16 cell line; protein PRSS23, 24 hours): 1.844
Fold change (UM16 cell line; protein RCCD1, 24 hours): 1.443
Fold change (UM16 cell line; protein RDH13, 24 hours): 1.429
Fold change (UM16 cell line; protein RRM2B, 24 hours): 1.395
Fold change (UM16 cell line; protein RUSC1, 24 hours): 0.771
Fold change (UM16 cell line; protein SCAMP2, 24 hours): 0.729
Fold change (UM16 cell line; protein SLC25A15, 24 hours): 0.796
Fold change (UM16 cell line; protein TADA3, 24 hours): 1.45
Fold change (UM16 cell line; protein TCEAL1, 24 hours): 1.382
Fold change (UM16 cell line; protein TMEM55B, 24 hours): 1.664
Fold change (UM16 cell line; protein UQCC3, 24 hours): 1.635
Fold change (UM16 cell line; protein ZBTB21, 24 hours): 0.709
Fold change (UM16 cell line; protein gk, 24 hours): 3.009
Fold change (UM16 cell line; protein krt17, 24 hours): 1.386
Fold change (UM16 cell line; protein pop7, 24 hours): 0.736
Fold change (UM16 cell line; protein scaf8, 24 hours): 1.508
